Measurements taken from ChEMBL document CHEMBL3044634, “Synthesis and evaluation of antibacterial and antifungal activities of new (Z)-3-bromo-4-(1,3-diaryl-1H-pyrazol-4-yl)but-3-en-2-ones and 4-(3-methyl-1-phenyl-1H-pyrazol-5-yl)-1,3-diaryl-1H-pyrazoles” (2013).
Values after ≈ are worked out from the molar mass of the structure shown. Active and inactive are the calls of the source. No cut-off for these calls is given here.

Columns and labels:
Aspergillus niger = assay: Growth inhibition of Aspergillus niger at 4 mg/ml after 7 days by poisoned-food technique; format: functional; details: 168 h, read-out: GI
Aspergillus flavus = assay: Growth inhibition of Aspergillus flavus at 4 mg/ml after 7 days by poisoned-food technique; format: functional; details: 168 h, read-out: GI
Bacillus subtilis [1] = assay: Antibacterial activity against Bacillus subtilis MTCC 121 after 24 hr by macrodilution tube method; format: functional; details: MTCC 121, 24 h
Staphylococcus aureus [2] = assay: Antibacterial activity against Staphylococcus aureus MTCC 96 after 24 hr by macrodilution tube method; format: functional; details: MTCC 96, 24 h
Escherichia coli = assay: Antibacterial activity against Escherichia coli MTCC 1652 at 2 mg/ml after 24 hr by agar well diffusion method; format: functional, organism-based
Bacillus subtilis [3] = assay: Antibacterial activity against Bacillus subtilis MTCC 121 at 2 mg/ml after 24 hr by agar well diffusion method; format: functional; details: MTCC 121, 24 h, read-out: DIZ
Staphylococcus aureus [4] = assay: Antibacterial activity against Staphylococcus aureus MTCC 96 at 2 mg/ml after 24 hr by agar well diffusion method; format: functional; details: MTCC 96, 24 h, read-out: DIZ
Pseudomonas aeruginosa = assay: microbe, parasite or virus in culture; details: MTCC 741, 24 h, read-out: DIZ
Description: Antibacterial activity against Pseudomonas aeruginosa MTCC 741 at 2 mg/ml after 24 hr by agar well diffusion method

| SMILES | inhibition of growth at 4000 µg/mL (Aspergillus niger) | inhibition of growth at 4000 µg/mL (Aspergillus flavus) | MIC (Bacillus subtilis [1]) | MIC (Staphylococcus aureus [2]) | Activity (Escherichia coli) | zone of inhibition at 2000 µg/mL (Bacillus subtilis [3]) | zone of inhibition at 2000 µg/mL (Staphylococcus aureus [4]) | zone of inhibition at 2000 µg/mL (Pseudomonas aeruginosa) |
| --- | --- | --- | --- | --- | --- | --- | --- | --- |
| COc1ccc(-c2nn(-c3ccc([N+](=O)[O-])cc3)cc2/C=C(\Br)C(C)=O)cc1 | 45.5% | 50% | 128 µg/mL (≈ 289 µM) | 128 µg/mL (≈ 289 µM) | inactive | 16 mm | 15.6 mm | – |
| Cc1cc(-c2cn(-c3ccccc3)nc2-c2ccccc2)n(-c2ccccc2)n1 | 44.4% | 46.6% | 128 µg/mL (≈ 340 µM) | 128 µg/mL (≈ 340 µM) | inactive | 15.6 mm | 16.3 mm | – |
| Cc1cc(-c2cn(-c3ccc([N+](=O)[O-])cc3)nc2-c2ccc(F)cc2)n(-c2ccccc2)n1 | 44.4% | 47.7% | 128 µg/mL (≈ 291 µM) | 256 µg/mL (≈ 583 µM) | inactive | 15.6 mm | 13.6 mm | – |
| CC(=O)/C(Br)=C/c1cn(-c2ccc([N+](=O)[O-])cc2)nc1-c1ccccc1 | 51.1% | 53.3% | 128 µg/mL (≈ 310 µM) | 64 µg/mL (≈ 155 µM) | inactive | 17.3 mm | 19.3 mm | – |
| Cc1ccc(-c2nn(-c3ccccc3)cc2-c2cc(C)nn2-c2ccccc2)cc1 | 44.4% | 45.5% | 128 µg/mL (≈ 328 µM) | 256 µg/mL (≈ 656 µM) | inactive | 16.3 mm | 14.6 mm | – |
| COc1ccc(-c2nn(-c3ccccc3)cc2-c2cc(C)nn2-c2ccccc2)cc1 | 41.1% | 44.4% | 256 µg/mL (≈ 630 µM) | 128 µg/mL (≈ 315 µM) | inactive | 14 mm | 15.3 mm | – |
| CC(=O)/C(Br)=C/c1cn(-c2ccccc2)nc1-c1ccc(Cl)cc1 | 50% | 45.5% | 128 µg/mL (≈ 319 µM) | 256 µg/mL (≈ 637 µM) | inactive | 16.3 mm | 14.6 mm | – |
| Cc1cc(-c2cn(-c3ccccc3)nc2-c2ccc([N+](=O)[O-])cc2)n(-c2ccccc2)n1 | 51.1% | 53.3% | 64 µg/mL (≈ 152 µM) | 64 µg/mL (≈ 152 µM) | inactive | 18.6 mm | 17.6 mm | – |
| Cc1cc(-c2cn(-c3ccccc3)nc2-c2ccc(Cl)cc2)n(-c2ccccc2)n1 | 48.8% | 51.1% | 128 µg/mL (≈ 312 µM) | 256 µg/mL (≈ 623 µM) | inactive | 16.3 mm | 14.3 mm | – |
| CC(=O)/C(Br)=C/c1cn(-c2ccccc2)nc1-c1ccc([N+](=O)[O-])cc1 | 48.8% | 52.2% | 128 µg/mL (≈ 310 µM) | 128 µg/mL (≈ 310 µM) | inactive | 17.6 mm | 16 mm | – |
| O=C(O)c1cn(C2CC2)c2cc(N3CCNCC3)c(F)cc2c1=O [CIPROFLOXACIN] | – | – | 5 µg/mL (≈ 15.1 µM) | 5 µg/mL (≈ 15.1 µM) | – | 24 mm | 26 mm | 25.3 mm |
| COc1ccc(-c2nn(-c3ccccc3)cc2/C=C(\Br)C(C)=O)cc1 | 45.5% | 44.4% | 128 µg/mL (≈ 322 µM) | 128 µg/mL (≈ 322 µM) | inactive | 16.3 mm | 15.6 mm | – |
| CC(=O)/C(Br)=C/c1cn(-c2ccccc2)nc1-c1ccc(F)cc1 | 53.3% | 55.5% | 32 µg/mL (≈ 83.1 µM) | 32 µg/mL (≈ 83.1 µM) | inactive | 21.6 mm | 20.6 mm | – |
| OC(Cn1cncn1)(Cn1cncn1)c1ccc(F)cc1F [FLUCONAZOLE] | 81.1% | 77.7% | – | – | – | – | – | – |
| CC(=O)/C(Br)=C/c1cn(-c2ccccc2)nc1-c1ccccc1 | 51.1% | 48.8% | 128 µg/mL (≈ 349 µM) | 128 µg/mL (≈ 349 µM) | inactive | 16.6 mm | 15.3 mm | – |
| Cc1cc(-c2cn(-c3ccc([N+](=O)[O-])cc3)nc2-c2ccccc2)n(-c2ccccc2)n1 | 43.3% | 45.5% | 256 µg/mL (≈ 607 µM) | 256 µg/mL (≈ 607 µM) | inactive | 14.3 mm | 13.6 mm | – |
| Cc1cc(-c2cn(-c3ccccc3)nc2-c2ccc(Br)cc2)n(-c2ccccc2)n1 | 55.5% | 52.2% | 32 µg/mL (≈ 70.3 µM) | 64 µg/mL (≈ 141 µM) | inactive | 20.6 mm | 19.3 mm | – |
| CC(=O)/C(Br)=C/c1cn(-c2ccc([N+](=O)[O-])cc2)nc1-c1ccc(F)cc1 | 48.8% | 50% | 128 µg/mL (≈ 298 µM) | 128 µg/mL (≈ 298 µM) | inactive | 17.3 mm | 16.6 mm | – |
| CC(=O)/C(Br)=C/c1cn(-c2ccccc2)nc1-c1ccc(Br)cc1 | 55.5% | 58.8% | 64 µg/mL (≈ 143 µM) | 32 µg/mL (≈ 71.7 µM) | inactive | 19.3 mm | 21.3 mm | – |
| Cc1cc(-c2cn(-c3ccccc3)nc2-c2ccc(F)cc2)n(-c2ccccc2)n1 | 43.3% | 44.4% | 128 µg/mL (≈ 325 µM) | 128 µg/mL (≈ 325 µM) | inactive | 16.3 mm | 15 mm | – |
| COc1ccc(-c2nn(-c3ccc([N+](=O)[O-])cc3)cc2-c2cc(C)nn2-c2ccccc2)cc1 | 46.6% | 44.4% | 128 µg/mL (≈ 284 µM) | 256 µg/mL (≈ 567 µM) | inactive | 14 mm | 15.3 mm | – |
| CC(=O)/C(Br)=C/c1cn(-c2ccccc2)nc1-c1ccc(C)cc1 | 51.1% | 52.2% | 128 µg/mL (≈ 336 µM) | 64 µg/mL (≈ 168 µM) | inactive | 17 mm | 18.3 mm | – |
